Entries after “also recorded” stand apart in the source; their conditions may differ.
What was measured:
[1] = test system: plasma phospholipids; experiment: fatty acid levels in plasma phospholipids of rats fed GLA, EPA or DHA with or without anti-oxidant; format: in vivo, rat; details: fatty acid (GLA, EPA or DHA) 0.1% by weight in food plus 0.1% by weight anti-oxidant, two weeks, preliminary experiments
Protocol: (§1) In an effort to explore the effect further, we have performed preliminary experiments on rats on the effects of the administration of either GLA, EPA or DHA with or without the so anti-oxidants vitamin E, vitamin C or TA. Each fatty acid was added to the food at 0.1% by weight for a period of two weeks. The diet also contained either no other added material (control) or 0.1% by weight of vitamin E, vitamin C or TA. After two weeks the animals were killed and the levels of the fatty acids or their immediate metabolites determined in plasma phospholipids and in red cell membrane phospholipids. […] We can therefore conclude that there is no effect of anti-oxidants per se on the metabolism of the GLA, EPA or DHA in this situation. Equally, there were no effects of TA on the plasma phospholipid fatty acid composition. In contrast, in each of the groups the concentrations of the relevant fatty acids in red cell phospholipids were increased by 10-20%.

[2] = test system: red cell membrane phospholipids; experiment: fatty acid levels in red cell membrane phospholipids of rats fed GLA, EPA or DHA with or without anti-oxidant; format: in vivo, rat; details: two weeks; for effect on levels of the fatty acids or their immediate metabolites in red cell membrane phospholipids: fatty acid (GLA, EPA or DHA) 0.1% by weight in food plus 0.1% by weight anti-oxidant, preliminary experiments
Protocol: as §1

[3] = test system: perineal branch of the sciatic nerve of rats made diabetic by streptozotocin; experiment: motor nerve conduction velocity in streptozotocin diabetic rats; format: in vivo, rat; details: STZ diabetic Sprague Dawley rats; GLA approx. 20 mg/kg/daily in food, TA 20 mg/kg/day intraperitoneal; 2 weeks treatment starting 6 weeks after STZ
Description: (§2) Initial experimental evidence was obtained by studying rats made diabetic by the administration of streptozotocin. In such animal, complications resembling human complications of diabetes develop, and are characterised by reduction in conduction velocity to of impulses along the sciatic nerve and reduction in blood flow to the sciatic nerve. The reduction in blood flow is particularly important and is likely to be relevant to many complications of diabetes including retinopathy, nephropathy macrovascular arterial disease of the heart and peripheral arteries, impotence and leg ulceration. It may also be relevant to many of the other conditions in which essential fatty acids are useful treatments, including the inflammatory disorders. Five groups of animals given streptozotocin (STZ) were tested. They were accepted into the study only if they developed unequivocal elevation of blood glucose after the STZ. Ten animals acted as normal controls. […] The animals were left for 6 weeks after the STZ to allow the nerve damage to develop and were then given treatment with nothing or with GLA or TA or both together for 2 weeks At the end of the two weeks, the animals were anaesthetised and the motor nerve conduction velocity measured in the perineal branch of the sciatic nerve. Sciatic nerve blood flow was also measured by microelectrode polarography hydrogen clearance

[4] = test system: sciatic nerve of rats made diabetic by streptozotocin; experiment: sciatic nerve blood flow by microelectrode polarography hydrogen clearance in streptozotocin diabetic rats; format: in vivo, rat; details: STZ diabetic Sprague Dawley rats; GLA approx. 20 mg/kg/daily in food, TA 20 mg/kg/day intraperitoneal; 2 weeks treatment starting 6 weeks after STZ
Description: as §2

[5] = test system: animals with diabetes; experiment: vitamin E administered together with GLA in animals with diabetes; format: in vivo
Description: (§3) The results with EFA's and their synergistic effects with TA were completely unexpected and we decided to investigate them further. Vitamin E, like TA, is a lipophilic antioxidant and is one which is generally regarded as being physiologically more important than TA.

[6] = test system: atopic eczema, breast pain, rheumatoid arthritis and cardiovascular disease; experiment: clinical studies of GLA with co-administration of vitamin E; format: in vivo, human
Description: as §3

[7] = test system: nerve conduction; details: TA alone; Packer et al, pages 570-572; cited from earlier work

Compound | effect on levels of the fatty acids or their immediate metabolites in plasma phospholipids [1] | effect on levels of the fatty acids or their immediate metabolites in red cell membrane phospholipids [2] | motor nerve conduction velocity [3] | total nerve blood flow [4] | enhancement of the effect of GLA [5] | enhancement of the effects of GLA in clinical studies [6] | increase of concentrations of the relevant fatty acids in red cell phospholipids ([2]; GLA, EPA or DHA 0.1% by weight in food plus 0.1% by weight TA, versus control without TA) | effect on nerve conduction [7]
O=C1O[C@H]([C@@H](O)CO)C(O)=C1O [vitamin C] | Neither vitamin E nor vitamin C had any effects | Neither vitamin E nor vitamin C had any effects | – | – | – | – | – | –
CCCCC/C=C\C/C=C\C/C=C\CCCCC(=O)O [GLA, Gamma-linolenic acid] | – | – | little effect alone; also recorded: small improvements | little effect alone; also recorded: small improvements | – | – | – | –
vitamin E | Neither vitamin E nor vitamin C had any effects | Neither vitamin E nor vitamin C had any effects | – | – | no enhancement at all | not enhanced | – | –
O=C(O)CCCCC1CCSS1 (stereo not drawn) [TA, α-lipoic acid] | no effects | – | little effect alone; also recorded: small improvements | little effect alone; also recorded: small improvements | – | – | 10-20% | absence of effect
